From patent US20150126581A1, “MicroRNAs and Uses Thereof” (The University of Western Australia, priority 2012, published 2015)

Tests used:
Assay type in all cases: cell-based, human
ERBB-2 3′-UTR = assay: Dual luciferase reporter gene assay in HeLa cells, ERBB-2 3′-UTR reporter (positive control); conditions: 24 h after transfection, compared to miR-NC
Procedure: (§1) HeLa cells were seeded in 12-well plates and co-transfected using Lipofectamine 2000 (Invitrogen) with 100 ng of either the negative control (empty), DOHH 3′-UTR or ERBB-2 3′-UTR reporter construct (Genecopoeia™) and 1-2 nM final concentration of pre-miR-331-3p, pre-miR-642-5p, a combination of pre-miR-331-3p and pre-miR-642-5p, or pre-miR-NC per well. Lysates were assayed for Firefly and Renilla luciferase activities 24 h after transfection using the Dual Luciferase Reporter Assay System (Promega) and a Fluostar OPTIMA microplate reader (BMG Labtech), and firefly luciferase activities normalised to Renilla luciferase activities to obtain relative reporter gene activity.

[1] = Dual luciferase reporter gene assay in HeLa cells, negative control (empty) reporter vector; conditions: 24 h after transfection
From the text: The dual luciferase (firefly and Renilla) reporter miRNA target clone for the DOHH 3′-UTR (catalogue no. HmiT020194-MT01) and the negative control vector (catalogue no. CmiT000001-MT01), both based on the PETZ-MT01 vector containing a SV40 promoter upstream of the hLuc gene, and a CMV reporter upstream of the hRLuc gene, were sourced from Genecopoeia™ (Rockville, USA). For miRNA target clones, the DOHH 3′-UTR was inserted downstream of the SV40 promoter/firefly luciferase reporter gene. Firefly luciferase was normalised to Renilla′ luciferase for expression and transfection efficiency.
as §1

DOHH protein = assay: Western blot of DOHH protein in transfected HeLa cells; conditions: 30 nM precursor miRNA, 3 days post transfection, tubulin loading control
Procedure: Having established that the DOHH 3′-UTR is a target for hsa-miR-331-3p and hsa-miR-642-5p in reporter gene assays, the effect of hsa-miR-331-3p and/or hsa-miR-642-5p over-expression on DOHH RNA and protein expression in HeLa cells was investigated. Briefly, HeLa cancer cells were seeded into 6 well plates or 10 cm^2 dishes and transfected using Lipofectamine 2000 (Invitrogen) and precursor miRNA molecules at a final concentration of 30 nM. Cells were harvested 24 hours post transfection for total RNA and 3 days post transfection for protein. The effect of hsa-miR-331-3p and hsa-miR-642-5p over-expression on DOHH RNA and protein production was analysed by RT-PCR and Western blot as described below.
Cytoplasmic protein extracts of the transfected HeLa cells were prepared as described previously (Giles et al. (2003) J Biol Chem 278(5), 2937-2946), resolved on NuPAGE 4-12% Bis Tris gels or NuPAGE 10% Bis Tris gels (Invitrogen) and transferred to PVDF membranes (Roche). Membranes were blocked in 5% skim milk/TBST and probed with anti-tubulin rat polyclonal antibody (1:1,000, Abcam ab6161 100) as a loading control and anti-DOHH (C 19) goat polyclonal antibody (1:1000, Santa Cruz Biotechnology sc-55157). […]

HeLa cells = assay: xCELLigence cell proliferation assay; conditions: 5000 transfected cells, monitored over 90 hour period, compared to miRNA negative control
Procedure: The effect of transient miRNA over-expression in HeLa cells on cell proliferation was investigated using the xCELLigence™ System (Roche). Briefly, HeLa cells were grown and transfected with the miRNA negative control, hsa-miR-331-3p and/or hsa-miR-642-5p precursors as described above. Transfected HeLa cells were then trypsinised and counted using the Countess™ Automated cell counter and 5000 transiently transfected HeLa cells were plated in quadruplicate into 16 well E-plates. The cells monitored over a 90 hour period in real time according to the manufacturer's instructions.

[2] = system: 182 nucleotide element of the DOHH 3′-UTR; assay: Reporter gene assay in HeLa cells with 3′UTR, 3′UTR ELEMENT and 3′UTR MINUS ELEMENT constructs; conditions: for Reporter gene expression from “3′UTR MINUS ELEMENT” construct: 182 nucleotide element deleted; for Firefly luciferase expression from “3′UTR” and “3′UTR ELEMENT” constructs: versus NC
Procedure: To confirm that the regions in the 3′UTR of DOHH that were predicted to be targeted by hsa-miR-331-3p and hsa-miR-642-5p (see Example 1 and FIG. 1) were indeed targeted, reporter constructs with and without a 182 nucleotide element containing the predicted targeted regions were generated and used in reporter gene assays.
Briefly, three reporter gene constructs were prepared using a pmiR-REPORT vector (Ambion) as the backbone. The first construct was the construct described in Example 2, containing the DOHH 3′-UTR downstream of the firefly luciferase reporter gene (labelled “3′UTR”). The second construct contained a DOHH 3′-UTR in which the 182 base pair element had been deleted, downstream of the firefly luciferase reporter gene (labelled “3′UTR MINUS ELEMENT”). The third construct contained the 182 nucleotide element downstream of the firefly luciferase reporter gene (labelled “3′UTR ELEMENT”) (FIG. 6A).
In the first assay, performed essentially as described in Example 2 by transfection of HeLa cells, the firefly luciferase expression from the “3′UTR” and “3′UTR ELEMENT” constructs was assessed in the presence of hsa-miR-331-3p, hsa-miR-642-5p, a combination of the two or vehicle only (NC).
In the second assay performed by transfecting HeLa cells, the expression of the reporter gene from the “3′UTR MINUS ELEMENT” construct was assessed in the presence of hsa-miR-331-3p and/or hsa-miR-642-5p.

[3] = system: DOHH 3′-UTR 182 nucleotide element; assay: Luciferase RNA level from 3′UTR ELEMENT construct in DU145 cells; conditions: co-transfection, data not shown
From the text: DU145 cells were also co-transfected with the “3′UTR ELEMENT” construct (i.e. the luciferase reporter carrying the DOHH 3′-UTR 182 nucleotide element) and hsa-miR-331-3p and/or hsa-miR-642-5p.

| Substance | ERBB-2 3′-UTR reporter activity (ERBB-2 3′-UTR) | Reporter activity of negative control reporter vector [1] | DOHH protein expression (immunoblot) (DOHH protein) | HeLa cell proliferation (xCELLigence) (HeLa cells) | Reporter gene expression from “3′UTR MINUS ELEMENT” construct [2] | Firefly luciferase expression from “3′UTR” and “3′UTR ELEMENT” constructs [2] | Luciferase RNA levels from “3′UTR ELEMENT” construct [3] |
| --- | --- | --- | --- | --- | --- | --- | --- |
| hsa-miR-331-3p: human miR-331-3p, 5′-GCCCCUGGGCCUAUCCUAGAA-3′ (SEQ ID NO:4); transfected as Ambion Pre-miR precursor PM10881 (listed as RNA, chemistry not given here; listed as Homo sapiens) | significant reduction in reporter activity | no significant change in reporter activity | observed to be targeted | inhibit the proliferation of HeLa cells to similar degrees | no repression of the reporter gene | repression of firefly luciferase expression | Reduced luciferase RNA levels |
| hsa-miR-642-5p: human miR-642-5p, 5′-GUCCCUCUCCAAAUGUGUCUUG-3′ (SEQ ID NO:5); transfected as Ambion Pre-miR precursor PM11477 (listed as RNA, chemistry not given here; listed as Homo sapiens) | – | – | observed to be targeted | inhibit the proliferation of HeLa cells to similar degrees | no repression of the reporter gene | repression of firefly luciferase expression | Reduced luciferase RNA levels |
